According to ChEMBL document CHEMBL4130357, “Developing potential agents against atherosclerosis: Design, synthesis and pharmacological evaluation of novel dual inhibitors of oxidative stress and Squalene Synthase activity” (Eur J Med Chem, 2017):
Active and inactive are the calls of the source. The calls are words filed in the database; no cut-off is given here.

Assays:
Liver = assay: Antioxidant activity in heat-inactivated Fischer-344 rat hepatic microsomes assessed as protection against Fe2+/ascorbate-induced lipid peroxidation after 45 mins by TBAR-based spectrophotometry; format: functional, microsome; settings: Fischer-344, Liver, 0.75 h
[1] = Antioxidant activity assessed as DPPH radical scavenging activity measured at 30 to 60 mins by UV-Visible spectrophotometric method; format: functional
Squalene synthase = target: T1, Squalene synthase (Rattus norvegicus, UniProt Q02769); assay: Inhibition of SQS in rat microsomes using [3H]-FPP as substrate preincubated for 10 mins followed by substrate addition measured after 30 mins by scintillation counting
T1 sequence (Q02769 whole entry): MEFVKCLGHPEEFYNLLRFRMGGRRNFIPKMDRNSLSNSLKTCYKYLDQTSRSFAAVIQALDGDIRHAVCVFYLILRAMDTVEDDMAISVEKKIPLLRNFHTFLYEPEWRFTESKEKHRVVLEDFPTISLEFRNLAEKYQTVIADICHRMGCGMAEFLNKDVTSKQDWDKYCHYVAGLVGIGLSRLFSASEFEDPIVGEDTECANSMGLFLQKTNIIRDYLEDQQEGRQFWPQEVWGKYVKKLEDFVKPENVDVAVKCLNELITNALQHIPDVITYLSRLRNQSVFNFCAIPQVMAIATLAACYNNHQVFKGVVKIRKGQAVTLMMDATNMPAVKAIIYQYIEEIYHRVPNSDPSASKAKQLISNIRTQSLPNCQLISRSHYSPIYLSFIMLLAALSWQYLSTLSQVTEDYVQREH

[2] = target: T2, Prostaglandin G/H synthase 1 (Ovis aries) (UniProt P05979); assay: Inhibition of ovine COX1 at 50 uM using arachidonic acid as substrate by ELISA
T2 sequence (whole entry): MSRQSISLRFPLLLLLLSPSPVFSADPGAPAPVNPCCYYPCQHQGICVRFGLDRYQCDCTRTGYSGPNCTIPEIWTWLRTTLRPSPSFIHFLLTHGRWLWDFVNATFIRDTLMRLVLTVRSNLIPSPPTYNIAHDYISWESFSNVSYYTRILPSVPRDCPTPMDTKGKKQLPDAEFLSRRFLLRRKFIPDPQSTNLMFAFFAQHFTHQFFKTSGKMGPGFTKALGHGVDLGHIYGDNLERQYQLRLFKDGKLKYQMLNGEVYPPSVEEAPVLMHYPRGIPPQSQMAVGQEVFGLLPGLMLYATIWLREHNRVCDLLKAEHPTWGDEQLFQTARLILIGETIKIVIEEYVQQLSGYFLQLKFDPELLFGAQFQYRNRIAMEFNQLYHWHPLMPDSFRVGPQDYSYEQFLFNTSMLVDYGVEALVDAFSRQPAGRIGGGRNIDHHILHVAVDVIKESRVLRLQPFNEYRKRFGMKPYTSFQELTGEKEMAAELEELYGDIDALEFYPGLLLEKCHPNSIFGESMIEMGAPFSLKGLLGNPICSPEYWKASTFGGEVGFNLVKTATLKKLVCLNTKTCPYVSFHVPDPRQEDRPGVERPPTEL

[3] = target: T3, Prostaglandin G/H synthase 2 (Homo sapiens) (UniProt P35354); assay: Inhibition of recombinant human COX2 at 50 uM using arachidonic acid as substrate by ELISA
T3 sequence (whole entry): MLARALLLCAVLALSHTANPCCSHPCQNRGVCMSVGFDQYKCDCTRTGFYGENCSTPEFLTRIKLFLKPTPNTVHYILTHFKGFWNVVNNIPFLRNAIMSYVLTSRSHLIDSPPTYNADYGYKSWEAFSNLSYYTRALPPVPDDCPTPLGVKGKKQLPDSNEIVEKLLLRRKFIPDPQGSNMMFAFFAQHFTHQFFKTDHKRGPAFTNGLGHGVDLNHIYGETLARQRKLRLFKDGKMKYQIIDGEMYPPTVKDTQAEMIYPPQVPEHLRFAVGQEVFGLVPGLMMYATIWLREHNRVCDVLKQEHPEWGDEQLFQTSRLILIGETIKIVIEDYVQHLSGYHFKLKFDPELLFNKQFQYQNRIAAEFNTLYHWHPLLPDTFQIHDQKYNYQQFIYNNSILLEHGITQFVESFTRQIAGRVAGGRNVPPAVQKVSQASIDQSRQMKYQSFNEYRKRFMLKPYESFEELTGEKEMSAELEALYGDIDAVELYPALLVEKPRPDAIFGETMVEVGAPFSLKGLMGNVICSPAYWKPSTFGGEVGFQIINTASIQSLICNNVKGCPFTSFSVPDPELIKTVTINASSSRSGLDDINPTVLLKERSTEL

Mus musculus [4] = assay: Antihypercholesterolemic activity in HDF/STZ-induced obesity-diabetes type 2 SKH-2 mouse model assessed as increase in plasma HDL levels at 56 umol/kg, ip administered twice daily measured on day 22 and day 53 relative to untreated control; format: functional, organism-based
Mus musculus [5] = assay: Anti-diabetic activity in HDF/STZ-induced obesity-diabetes type 2 SKH-2 mouse model assessed as reversal of body weight gain at 56 umol/kg, ip administered twice daily until 23 days measured once per week; format: functional, organism-based
Mus musculus [6] = assay: Antihyperlipidemic activity in HDF/STZ-induced obesity-diabetes type 2 SKH-2 mouse model assessed as increase in plasma HDL/LDL ratio at 56 umol/kg, ip administered twice daily measured on day 22 and day 53 relative to untreated control; format: functional
Mus musculus [7] = assay: Antihypercholesterolemic activity in HDF/STZ-induced obesity-diabetes type 2 SKH-2 mouse model assessed as decrease in plasma total cholestrol levels at 56 umol/kg, ip administered twice daily measured on day 22 and day 53 relative to untreated control; format: functional; design: scale not given: the % may be the effect or the level left
Mus musculus [8] = assay: Antihyperlipidemic activity in HDF/STZ-induced obesity-diabetes type 2 SKH-2 mouse model assessed as decrease in plasma LDL levels at 56 umol/kg, ip administered twice daily measured on day 22 and day 53 relative to untreated control; format: functional; design: scale not given: the % may be the effect or the level left
Mus musculus [9] = assay: Anti-diabetic activity in HDF/STZ-induced obesity-diabetes type 2 SKH-2 mouse model assessed as reversal of body weight gain at 56 umol/kg, ip administered twice daily until 53 days measured once per week from 28th to 53 day post STZ challenge; format: functional, organism-based
Mus musculus [10] = assay: Antihyperlipidemic activity in HDF/STZ-induced obesity-diabetes type 2 SKH-2 mouse model assessed as decrease in plasma triglyceride levels at 56 umol/kg, ip administered twice daily measured on day 22 and day 53 relative to untreated control; format: functional
[11] = target: T2, Prostaglandin G/H synthase 1 (Ovis aries); assay: Inhibition of ovine COX1 at 20 uM using arachidonic acid as substrate by ELISA
Mus musculus [12] = assay: Anti-diabetic activity in HDF/STZ-induced obesity-diabetes type 2 SKH-2 mouse model assessed as reversal of glucose increase at 56 umol/kg, ip administered twice daily until 53 days measured every 5 to 10 days from day 27 to 53; format: functional, organism-based

Compound	IC50 (Liver)	IC50 [1]	IC50 (Squalene synthase)	also measured
CN1CCOC(O)(c2ccc(/C=C/c3ccccc3)cc2)C1 (centres undefined)	110 µM	> 400 µM	7 µM	
CC(C)(Sc1cc(C(C)(C)C)c(O)c(C(C)(C)C)c1)Sc1cc(C(C)(C)C)c(O)c(C(C)(C)C)c1 [PROBUCOL]	> 1000 µM	234 µM		
OC1(c2ccc(/C=C/c3ccccc3)cc2)CN2CCCCC2CO1 (centres undefined)	42 µM	> 400 µM		inhibition [2]: inactive; inhibition [3]: inactive
CN1CC(O)(c2ccccc2)Oc2ccccc21 (centres undefined)	7.6 µM	152 µM	50 µM	
CN1CC(O)(c2ccccc2)Sc2ccccc21 (centres undefined)	8.2 µM	183 µM	28 µM	
CN1CC(O)(c2ccc(-c3cc(C(C)(C)C)c(O)c(C(C)(C)C)c3)cc2)OC2CCCCC21 (centres undefined)	5.9 µM	> 400 µM		Activity (Mus musculus [4]): inactive; Activity (Mus musculus [5]): Active; fold change (FC) (Mus musculus [6]): 7.5; Activity (Mus musculus [7]): 70%; Activity (Mus musculus [8]): 95%; Activity (Mus musculus [9]): Active; Activity (Mus musculus [10]): inactive
CN1CC(O)(c2ccc(-c3ccc(C(F)(F)F)cc3)cc2)Sc2ccccc21 (centres undefined)	14 µM	171 µM	14 µM	
CN1CC(O)(c2ccc(-c3ccccc3)cc2)SC2CCCCC21 (centres undefined)	83 µM	271 µM	16.5 µM	inhibition [11]: 89%
CN1CC(O)(c2ccc(-c3ccccc3)cc2)OC2CCCCC21 (centres undefined)	450 µM	> 400 µM		
CN1CC(O)(c2ccc(-c3ccccc3)cc2)Oc2ccc(-c3ccccc3)cc21 (centres undefined)	4.9 µM	> 400 µM	> 50 µM	
CN1CC(O)(c2ccc(/C=C/c3ccccc3)cc2)OC2CCCCC21 (centres undefined)	45 µM	> 400 µM		inhibition [2]: inactive; inhibition [3]: inactive
Oc1ccc(/C=C/c2cc(O)cc(O)c2)cc1 [RESVERATROL]	15 µM	96 µM	> 50 µM	
OC1(c2ccc(-c3ccccc3)cc2)CN2CCCCC2CO1 (centres undefined)	350 µM	> 400 µM	35 µM	
CSc1ccccc1N(C)CC(=O)c1ccc(-c2ccccc2)cc1	> 1000 µM	> 400 µM	> 50 µM	
CN1CC(O)(c2ccc(-c3ccc(O)cc3)cc2)Sc2ccccc21 (centres undefined)	15 µM	44 µM	8.5 µM	
CN1CC(O)(c2ccc(-c3cc(C(C)(C)C)c(O)c(C(C)(C)C)c3)cc2)Sc2ccccc21 (centres undefined)	6.5 µM	34 µM	> 50 µM	inhibition [2]: inactive; Activity (Mus musculus [4]): inactive; inhibition [3]: inactive; Activity (Mus musculus [5]): inactive; fold change (FC) (Mus musculus [6]): 3; Activity (Mus musculus [7]): 31%; Activity (Mus musculus [8]): 65%; Activity (Mus musculus [12]): inactive; Activity (Mus musculus [10]): 55%
CN1CCOC(O)(c2ccc(-c3ccccc3)cc2)C1 (centres undefined)	300 µM	> 400 µM	33 µM	inhibition [2]: 38%; inhibition [3]: 100%
